Values joined by “and” are separate entries in the source; they are usually repeats but may differ in a detail not shown here. Equal values may be shown once.
Columns and labels:
Type in all cases: in vivo, human
[1] = tested on: patients with moderate to severe headaches of 24–72 hours duration; assay: Expanded study: IV VPA vs DHE with metoclopramide IM, acute migraine headache (Example 2); conditions: 24-h
[2] = tested on: patients with moderate to severe migraine headaches of duration of 24 to 96 hrs; assay: Pilot study: IV valproate vs IM DHE with metoclopramide for abortive treatment of acute migraine headache (Example 1); conditions: for % Headache Relief: 5 patients per group; for Headache Severity / Nausea/vomiting / Phonophobia / Photophobia: individual patient; for Headache Severity: grade 0-3; for Nausea/vomiting / Phonophobia / Photophobia: presence; for patients who had nausea / patients who had relief of phonophobia / patients who had relief of photophobia / patients with response of headache from moderate or severe to none or mild: of 5 patients
Text: This Example describes the results of a pilot study using intravenous valproate for abortive treatment of acute migraine headache. • Methods. Patients with established diagnosis of migraine with and without aura were considered for randomization to intravenous (“IV”) valproate (“VPA”) or intramuscular (“IM”) dihydroergotamine (“DHE”) with metoclopramide, also referred to herein as […]®, for patients with moderate to severe migraine headaches of duration of 24 to 96 hrs. Patients received intravenous infusion of 500 mgs of valproate over 30 mins or 1 mg DHE with 10 mgs metoclopramide IM. Headache severity, presence of nausea, phonophobia and photophobia were rated at baseline, 1 hr, 2 hrs, and 4 hrs. Table I and II. There were 5 patients in each group. • Results. Of the 5 patients receiving valproate, 4 of the 5 had response of their headaches from moderate or severe to none or mild at 1 hr, 2 hrs, and 4 hrs. Of the 5 patients receiving DHE, 3 of the 5 patients had headache response to moderate or severe to mild or none at 1 hr, 2 hrs, and 4 hrs. Table III. […] In the DHE group, 2 of 5 had nausea at baseline, and 1 had nausea at 1 hr, 2 hrs, and 4 hrs. Table IVa. […] In the DHE group, 3 of 5 had relief of photophobia at 1 hr, 4 of 5 had relief at 2 hrs and 4 hrs. […] In the DHE group, 2 of 5 had relief of phonophobia at 1 hr, and 3 of 5 had relief of phonophobia at 2 hrs and 4 hrs. Table IVb. • Conclusions. Intravenous valproate is an alternative therapy for abortive treatment of moderate to severe prolonged acute migraine headache. Anti-convulsant mechanisms may be relevant to treatment of headache symptomatology.

[3] = tested on: patients with moderate to severe headaches of 24–72 hours duration; assay: Expanded study: IV VPA vs DHE with metoclopramide IM, acute migraine headache (Example 2); conditions: for % Headache Relief: 10 patients per group; for Headache Severity / Nausea/vomiting / Phonophobia / Photophobia: individual patient; for Headache Severity: grade 0-3; for Nausea/vomiting / Phonophobia / Photophobia: presence
Experimental: This Example describes an expanded study and analysis of the effectiveness of intravenous VPA for the treatment of acute migraine headache of significant duration. Patient data from the pilot study described in Example 1 has been incorporated and further analyzed in addition to new patient data. • Design. […] Patients alternately received intravenous VPA 500 mgs over 15–30 minutes, or dihydroergotamine (“DHE”) 1 mg with metoclopramide 10 mgs intramuscularly (“IM”). Age ranged from 22 to 73 years. Patients rated severity of headache, presence or absence of nausea, photophobia, and phonophobia at 1, 2 and 4 hrs. Table V and Table VI. • Results. In the 10 patients receiving DHE and metoclopramide, 40% had headache relief at 1 hour, 50% at 2 hours, 60% at 4 hours. The percent with nausea at 0, 1, 2, and 4 hours was 60%, 10%, 20%, 30% respectively, photophobia at 0, 1, 2, and 4 hours 100%, 50%, 50%, 40% respectively, phonophobia at 0, 1, 2, and 4 hours 80%, 30%, 50%, 40% respectively. In the 10 patients receiving i.v. VPA, 60% had headache relief at 1 hour, 70% at 2 hours, 70% at 4 hours, the percent with nausea at 0, 1, 2, and 4 hours was 70%, 30% 30%, 20% respectively, photophobia at 0, 1, 2, and 4 hours was 100%, 40%, 40%, 30% respectively, and phonophobia at 0, 1, 2, and 4 hours was 90%, 40%, 40%, 30% respectively. Table VII. • Conclusions. The results of the present study indicate that intravenous VPA is at least as efficacious as DHE for abortive treatment of acute migraine. Accordingly, intravenous VPA offers a treatment option for migraine headache patients who have recently used a triptan or DHE without the risk of drug-drug interaction or cardiovascular complications.

[4] = tested on: patients with moderate to severe migraine headaches of duration of 24 to 96 hrs; assay: Pilot study: IV valproate vs IM DHE with metoclopramide for abortive treatment of acute migraine headache (Example 1); conditions: individual patient, grade 0-3; 24-h

Compound: CN1C[C@H](C(=O)N[C@]2(C)O[C@@]3(O)[C@@H]4CCCN4C(=O)[C@H](Cc4ccccc4)N3C2=O)C[C@@H]2c3cccc4[nH]cc(c34)C[C@H]21 [DHE, dihydroergotamine]
- % experiencing Photophobia [1]: 20%
- Photophobia ([1]; individual patient, presence): 0
- % experiencing Nausea ([2]; 0-h (baseline)): 40%
- % experiencing Photophobia ([2]; 0-h (baseline)): 100%
- % experiencing phonphobia ([2]; 0-h (baseline)): 80%
- % experiencing Nausea ([2]; 1-h): 20%
- % experiencing Photophobia ([2]; 1-h): 60%
- % experiencing phonphobia ([2]; 1-h): 40%
- % experiencing Nausea ([2]; 2-h): 50%
- % experiencing Photophobia ([2]; 2-h): 50%
- % experiencing phonphobia ([2]; 2-h): 50%
- % experiencing Nausea ([2]; 4-h): 40%
- % experiencing Photophobia ([2]; 4-h): 40%
- % experiencing phonphobia ([2]; 4-h): 40%
- % Headache Relief ([2]; 1-h): 60%
- % Headache Relief ([2]; 2-h): 50%
- % Headache Relief ([2]; 4-h): 60%
- Headache Severity ([2]; 0-h (baseline), Depacon IV 500 mg or DHE 1 mg + Reglan 10 mg): 2 and 3 (4×)
- Headache Severity ([2]; 1-h): 3 and 0 (2×) and 1 and 2
- Headache Severity ([2]; 2-h): 3 and 0 (2×) and 2
- Headache Severity ([2]; 4-h): 3 and 1 and 0 (2×) and 2
- Nausea/vomiting ([2]; 0-h (baseline)): 0
- Phonophobia ([2]; 0-h (baseline)): 0
- Nausea/vomiting ([2]; 1-h): 0
- Phonophobia ([2]; 1-h): 0
- Photophobia ([2]; 1-h): 0
- Nausea/vomiting ([2]; 2-h): 0
- Phonophobia ([2]; 2-h): 0
- Photophobia ([2]; 2-h): 0
- Nausea/vomiting ([2]; 4-h): 0
- Phonophobia ([2]; 4-h): 0
- Photophobia ([2]; 4-h): 0
- Nausea/vomiting ([2]; 24-h): 0
- Phonophobia ([2]; 24-h): 0
- Photophobia ([2]; 24-h): 0
- patients who had nausea ([2]; 1 hr): 1
- patients who had relief of phonophobia ([2]; 1 hr): 2 of 5
- patients who had relief of photophobia ([2]; 1 hr): 3 of 5
- patients with response of headache from moderate or severe to none or mild ([2]; 1 hr): 3 of the 5
- patients who had nausea ([2]; 2 hrs): 1
- patients who had relief of phonophobia ([2]; 2 hrs): 3 of 5
- patients who had relief of photophobia ([2]; 2 hrs): 4 of 5
- patients with response of headache from moderate or severe to none or mild ([2]; 2 hrs): 3 of the 5
- patients who had nausea ([2]; 4 hrs): 1
- patients who had relief of phonophobia ([2]; 4 hrs): 3 of 5
- patients who had relief of photophobia ([2]; 4 hrs): 4 of 5
- patients with response of headache from moderate or severe to none or mild ([2]; 4 hrs): 3 of the 5
- patients who had nausea ([2]; baseline): 2 of 5
- % experiencing Nausea ([3]; 0-h (baseline)): 60%
- % experiencing Phonophobia ([3]; 0-h (baseline)): 80%
- % experiencing Photophobia ([3]; 0-h (baseline)): 100%
- % experiencing Nausea ([3]; 1-h): 10%
- % experiencing Phonophobia ([3]; 1-h): 30%
- % experiencing Photophobia ([3]; 1-h): 50%
- % experiencing Nausea ([3]; 2-h): 20%
- % experiencing Phonophobia ([3]; 2-h): 50%
- % experiencing Photophobia ([3]; 2-h): 50%
- % experiencing Nausea ([3]; 4-h): 30%
- % experiencing Phonophobia ([3]; 4-h): 40%
- % experiencing Photophobia ([3]; 4-h): 40%
- % Headache Relief ([3]; 1-h): 40%
- % Headache Relief ([3]; 2-h): 50%
- % Headache Relief ([3]; 4-h): 60%
- % Headache Relief ([3]; 24-h): 90%
- % experiencing Nausea ([3]; 24-h): 10%
- % experiencing Phonophobia ([3]; 24-h): 10%
- Headache Severity ([3]; 0-h (baseline), Depacon IV 500 mg or DHE 1 mg IM + Reglan 10 mg IM): 2 (4×) and 3 (6×)
- Headache Severity ([3]; 1-h): 3 (2×) and 0 (4×) and 2 (4×)
- Headache Severity ([3]; 2-h): 3 (2×) and 0 (4×) and 2 (3×) and 1
- Headache Severity ([3]; 4-h): 3 (2×) and 1 (2×) and 0 (4×) and 2 (2×)
- Headache Severity ([3]; 24-h): 1 (6×) and 2 and 0 (3×)
- Nausea/vomiting ([3]; 0-h (baseline)): 0
- Phonophobia ([3]; 0-h (baseline)): 0
- Nausea/vomiting ([3]; 1-h): 0
- Phonophobia ([3]; 1-h): 0
- Photophobia ([3]; 1-h): 0
- Nausea/vomiting ([3]; 2-h): 0
- Phonophobia ([3]; 2-h): 0
- Photophobia ([3]; 2-h): 0
- Nausea/vomiting ([3]; 4-h): 0
- Phonophobia ([3]; 4-h): 0
- Photophobia ([3]; 4-h): 0
- Nausea/vomiting ([3]; 24-h): 0
- Phonophobia ([3]; 24-h): 0
- Headache Severity [4]: 1 (2×) and 0 and 2
